Results from patent publication US7300946B2, “N-(substituted arylmethyl)-4-(disubstituted methyl) piperidines and pyridines” (Bayer CropScience AG, priority 2002, dated 2007).

Test system: tobacco budworm (Heliothis virescens [Fabricius])
Test: surface-treated diet test against the tobacco budworm
Format: in vivo
Details: tobacco budworm second instar larvae; surface-treated diet; 0.25 millimoles of candidate insecticide on the surface of the diet; five-day exposure; compared to total number of insects infested
In short: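 Wheat germ artificial diet surface-treated with 40 µL of 50 mM DMSO stock diluted 1:7 in 1:1 water/acetone (0.25 millimolar on diet), or sub-multiples for rate tests. One second-instar larva per well, 25° C, 60% RH, 5 days; percent weight inhibition vs DMSO controls and percent mortality.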

Structure (SMILES) | Percent Mortality
O=C(Nc1ccc(Cl)cc1)OC(c1ccc(C(F)(F)F)cc1)C1CCN(Cc2ccc(Oc3ccccc3)cc2)CC1 (stereo not drawn) [Compound 545] | 100%
CC(C)OC(=O)Nc1ccc(COC(c2ccc(C(F)(F)F)cc2)C2CCN(Cc3ccc(NC(=O)OC(C)C)cc3)CC2)cc1 (stereo not drawn) [Compound 457] | 0%
FC(F)(F)c1ccc(C(Oc2cc(C(F)(F)F)ccn2)C2CCN(Cc3ccc(Oc4ccccn4)cc3)CC2)cc1 (stereo not drawn) [Compound 438] | 100%
FC(F)(F)c1ccc(NC(=S)OC(c2ccc(C(F)(F)F)cc2)C2CCN(Cc3ccc(Oc4ccccn4)cc3)CC2)cc1 (stereo not drawn) [Compound 693] | 100%
Cn1nnc(-c2ccc(CN3CCC(C(NC(=O)c4ccccc4)c4ccc(OC(F)(F)F)cc4)CC3)cc2)n1 (stereo not drawn) [Compound 321] | 17%
Cn1nnc(-c2ccc(CN3CCC(C(OC(=O)Nc4ccc(Cl)cc4)c4ccc(Cl)cc4)CC3)cc2)n1 (stereo not drawn) [Compound 264] | 100%
Cn1nnc(-c2ccc(CN3CCC(=C(c4ccc(C(F)(F)F)cc4)c4ccc(C(F)(F)F)cc4)CC3)cc2)n1 [Compound 75] | 100%
CCn1nnc(-c2ccc(CN3CCC(C(OC(=O)Nc4ccc(-c5ccccc5)cc4)c4ccc(Oc5ccccc5)cc4)CC3)cc2)n1 (stereo not drawn) [Compound 621] | 0%
O=C(Nc1ccccc1)OC(c1ccc(C(F)(F)F)cc1)C1CCN(Cc2ccc(Oc3ccccn3)cc2)CC1 (stereo not drawn) [Compound 657] | 100%
CCn1nnc(-c2ccc(CN3CCC(C(OC(=O)Nc4ccc(F)cc4)c4ccc(OC(F)(F)F)cc4)CC3)cc2)n1 (stereo not drawn) [Compound 277] | 100%
Cn1nnc(-c2ccc(CN3CCC(C(NCc4ccccc4F)c4ccc(OC(F)(F)F)cc4)CC3)cc2)n1 (stereo not drawn) [Compound 313] | 100%
O=C(Nc1ccc(F)c(F)c1)OC(c1ccc(OC(F)(F)F)cc1)C1CCN(Cc2ccc(Oc3ccccn3)cc2)CC1 (stereo not drawn) [Compound 238] | 100%
CCON=Cc1ccc(CN2CCC(C(OC(=O)Nc3cc(F)cc(F)c3)c3ccc(Cl)cc3)CC2)cc1 (stereo not drawn) [Compound 525] | 100%
CCON=Cc1ccc(CN2CCC(C(Oc3ccc(C(F)(F)F)cc3)c3ccc(C(F)(F)F)cc3)CC2)cc1 (stereo not drawn) [Compound 454] | 100%
COC(=O)c1cccc(NC(=O)OC(c2ccc(Cl)cc2)C2CCN(Cc3ccc(Oc4ccccn4)cc3)CC2)c1 (stereo not drawn) [Compound 638] | 100%
O=C(Nc1cccnc1Cl)OC(c1ccc(C(F)(F)F)cc1)C1CCN(Cc2ccc(Oc3ccccn3)cc2)CC1 (stereo not drawn) [Compound 447] | 100%
CCn1nnc(-c2ccc(C[N+]3([O-])CCC(=C(c4ccc5c(c4)OC(F)(F)O5)c4ccc5c(c4)OC(F)(F)O5)CC3)cc2)n1 (stereo not drawn) [Compound 115] | 100%
O=C(Nc1ccc(C(F)(F)F)cc1)OC(c1ccc(C(F)(F)F)cc1)C1CCN(Cc2ccc(Oc3ccccn3)cc2)CC1 (stereo not drawn) [Compound 245] | 100%
O=C(Nc1ccc(Cl)cc1)OC(c1ccc(C(F)(F)F)cc1)C1CCN(Cc2ccc(Oc3cccc[n+]3[O-])cc2)CC1 (stereo not drawn) [Compound 669] | 100%
CCCOc1ccc(CN2CCC(C(OC(=O)Nc3cccc(C(F)(F)F)c3)c3ccc(Cl)cc3)CC2)cc1 (stereo not drawn) [Compound 472] | 100%
COc1ccc(C(=O)NC(c2ccc(OC(F)(F)F)cc2)C2CCN(Cc3ccc(-c4nnn(C)n4)cc3)CC2)cc1 (stereo not drawn) [Compound 331] | 67%
CC(C)OC(=O)Nc1ccc(CN2CCC(C(OC(=O)Nc3cc(F)cc(F)c3)c3ccc(Cl)cc3Cl)CC2)cc1 (stereo not drawn) [Compound 507] | 100%
Cn1nnc(-c2ccc(CN3CCC(C(NC(=O)Oc4ccc(OC(F)(F)F)cc4)c4ccc(OC(F)(F)F)cc4)CC3)cc2)n1 (stereo not drawn) [Compound 357] | 100%
O=C(Nc1cc(F)cc(F)c1)OC(c1ccc(F)cc1)C1CCN(Cc2ccc(Oc3ccccn3)cc2)CC1 (stereo not drawn) [Compound 641] | 100%

Same assay, conditions: tobacco budworm second instar larvae; surface-treated diet; 0.25 millimoles of candidate insecticide on the surface of the diet; five-day exposure; inhibition of insect weight relative to untreated controls

Structure (SMILES) | Percent Growth Inhibition
O=C(Nc1ccc(Cl)cc1)OC(c1ccc(C(F)(F)F)cc1)C1CCN(Cc2ccc(Oc3ccccc3)cc2)CC1 (stereo not drawn) [Compound 545] | 100%
CC(C)OC(=O)Nc1ccc(COC(c2ccc(C(F)(F)F)cc2)C2CCN(Cc3ccc(NC(=O)OC(C)C)cc3)CC2)cc1 (stereo not drawn) [Compound 457] | 16%
FC(F)(F)c1ccc(C(Oc2cc(C(F)(F)F)ccn2)C2CCN(Cc3ccc(Oc4ccccn4)cc3)CC2)cc1 (stereo not drawn) [Compound 438] | 100%
FC(F)(F)c1ccc(NC(=S)OC(c2ccc(C(F)(F)F)cc2)C2CCN(Cc3ccc(Oc4ccccn4)cc3)CC2)cc1 (stereo not drawn) [Compound 693] | 100%
Cn1nnc(-c2ccc(CN3CCC(C(NC(=O)c4ccccc4)c4ccc(OC(F)(F)F)cc4)CC3)cc2)n1 (stereo not drawn) [Compound 321] | 95%
Cn1nnc(-c2ccc(CN3CCC(C(OC(=O)Nc4ccc(Cl)cc4)c4ccc(Cl)cc4)CC3)cc2)n1 (stereo not drawn) [Compound 264] | 100%
Cn1nnc(-c2ccc(CN3CCC(=C(c4ccc(C(F)(F)F)cc4)c4ccc(C(F)(F)F)cc4)CC3)cc2)n1 [Compound 75] | 96%
CCn1nnc(-c2ccc(CN3CCC(C(OC(=O)Nc4ccc(-c5ccccc5)cc4)c4ccc(Oc5ccccc5)cc4)CC3)cc2)n1 (stereo not drawn) [Compound 621] | 4%
O=C(Nc1ccccc1)OC(c1ccc(C(F)(F)F)cc1)C1CCN(Cc2ccc(Oc3ccccn3)cc2)CC1 (stereo not drawn) [Compound 657] | 100%
CCn1nnc(-c2ccc(CN3CCC(C(OC(=O)Nc4ccc(F)cc4)c4ccc(OC(F)(F)F)cc4)CC3)cc2)n1 (stereo not drawn) [Compound 277] | 100%
Cn1nnc(-c2ccc(CN3CCC(C(NCc4ccccc4F)c4ccc(OC(F)(F)F)cc4)CC3)cc2)n1 (stereo not drawn) [Compound 313] | 100%
O=C(Nc1ccc(F)c(F)c1)OC(c1ccc(OC(F)(F)F)cc1)C1CCN(Cc2ccc(Oc3ccccn3)cc2)CC1 (stereo not drawn) [Compound 238] | 100%
CCON=Cc1ccc(CN2CCC(C(OC(=O)Nc3cc(F)cc(F)c3)c3ccc(Cl)cc3)CC2)cc1 (stereo not drawn) [Compound 525] | 100%
CCON=Cc1ccc(CN2CCC(C(Oc3ccc(C(F)(F)F)cc3)c3ccc(C(F)(F)F)cc3)CC2)cc1 (stereo not drawn) [Compound 454] | 100%
COC(=O)c1cccc(NC(=O)OC(c2ccc(Cl)cc2)C2CCN(Cc3ccc(Oc4ccccn4)cc3)CC2)c1 (stereo not drawn) [Compound 638] | 100%
O=C(Nc1cccnc1Cl)OC(c1ccc(C(F)(F)F)cc1)C1CCN(Cc2ccc(Oc3ccccn3)cc2)CC1 (stereo not drawn) [Compound 447] | 100%
CCn1nnc(-c2ccc(C[N+]3([O-])CCC(=C(c4ccc5c(c4)OC(F)(F)O5)c4ccc5c(c4)OC(F)(F)O5)CC3)cc2)n1 (stereo not drawn) [Compound 115] | 100%
O=C(Nc1ccc(C(F)(F)F)cc1)OC(c1ccc(C(F)(F)F)cc1)C1CCN(Cc2ccc(Oc3ccccn3)cc2)CC1 (stereo not drawn) [Compound 245] | 100%
O=C(Nc1ccc(Cl)cc1)OC(c1ccc(C(F)(F)F)cc1)C1CCN(Cc2ccc(Oc3cccc[n+]3[O-])cc2)CC1 (stereo not drawn) [Compound 669] | 100%
CCCOc1ccc(CN2CCC(C(OC(=O)Nc3cccc(C(F)(F)F)c3)c3ccc(Cl)cc3)CC2)cc1 (stereo not drawn) [Compound 472] | 100%
COc1ccc(C(=O)NC(c2ccc(OC(F)(F)F)cc2)C2CCN(Cc3ccc(-c4nnn(C)n4)cc3)CC2)cc1 (stereo not drawn) [Compound 331] | 98%
CC(C)OC(=O)Nc1ccc(CN2CCC(C(OC(=O)Nc3cc(F)cc(F)c3)c3ccc(Cl)cc3Cl)CC2)cc1 (stereo not drawn) [Compound 507] | 100%
Cn1nnc(-c2ccc(CN3CCC(C(NC(=O)Oc4ccc(OC(F)(F)F)cc4)c4ccc(OC(F)(F)F)cc4)CC3)cc2)n1 (stereo not drawn) [Compound 357] | 100%
O=C(Nc1cc(F)cc(F)c1)OC(c1ccc(F)cc1)C1CCN(Cc2ccc(Oc3ccccn3)cc2)CC1 (stereo not drawn) [Compound 641] | 100%
